According to patent publication US7297344B1, “Preparations for the promotion of wound healing in the upper respiratory tract and/or ear” (priority 1999, dated 2007):

Tested on: Human ciliated epithelium cells
Experiment: in-vitro ciliary vibration (ciliary activity) test
Format: cell-based
Procedure: The corresponding cells were exposed and incubated with 100 μl test substance at a temperature of 37° C.

N=C(NCCCCCCNC(=N)NC(=N)Nc1ccc(Cl)cc1)NC(=N)Nc1ccc(Cl)cc1 [chlorohexidine]
ciliary activity / ciliary vibration: decrease of the measured ciliary vibration
